Laboratory results as given in patent US7135292B2, “Analysis and modification of gene expression in marine invertebrate cells” (Harbor Branch Oceanographic Institution, Inc., priority 2002, dated 2006).

Columns and labels:
Assay type in all cases: cell-based
[1] = system: TIB-155 murine lymphocytes; assay: Microarray analysis of gene expression, PHA-treated vs untreated murine lymphocytes; details: significant regulation, opposite to sponge cells
Method: Murine Cells. Following the same experimental design as described for sponge cells, TIB-155 murine lymphocytes were cultured in the American Type Culture Collection-specified growth medium (RPMI 1640 with 0.05 mM 2-mercaptoethanol and 10% fetal bovine serum).

[2] = system: Axinella corrugata cell cultures; assay: Fluorescent assays of DNA and protein content in PHA-treated cultures; details: 6 replicate comparisons, observed between 6 and 18 hours after treatment
From the text: Sponge Cells. Cells were obtained from cryopreserved stocks at Harbor Branch Oceanographic Institution. All cells were derived from Axinella corrugata specimens collected in the waters of Florida, the Bahamas, and the Caribbean Sea, and were cryopreserved according to Pomponi et al. (Pomponi et al. 1997b supra). This sponge is relatively common and easy to collect, amenable to culture efforts, and produces the bioactive compound, stevensine, in vitro (Pomponi et al. 1997b supra). Enriched fractions of dissociated sponge cells were prepared, cryopreserved, and thawed according to previously published methods (Pomponi et al. 1997b supra). Cells were incubated at 22–25° C. in a growth medium consisting of a modified and supplemented commercial formulation (Willoughby and Pomponi 2000 supra). The length of the incubation period was based on my unpublished observation of elevated DNA and protein contents (9%, P=0.034, and 9%, P=0.038, respectively) in PHA-treated cultures, according to fluorescent assays of 6 replicate comparisons (Willoughby and Pomponi 2000 supra). Since the effects were observed between 6 and 18 hours after treatment, cells were cultured for 12-hour periods representing the center point of the period of observed changes. […]

[3] = system: Axinella corrugata cell cultures; assay: PCR verification of cdc10 and calcineurin B expression; details: two specimens
Method: cDNA Preparation. cDNA was prepared as described in the array experiments, using unlabeled dCTP instead of the α-^33P dCTP. The final product was then diluted 25-fold in water, loaded onto a DNA recovery column (Zymo Research D4001) and washed according to the manufacturer's protocol followed by elution with four consecutive 25-μl aliquots of nuclease free water. The procedure was then repeated for 40-μl aliquots, with a final elution in two aliquots of 20 μl, to produce twice-washed cDNA. Final template solution was prepared from 10 μl of twice-washed cDNA by addition of 80 μl water and precipitation with 30 μl 5M ammonium acetate and 250 μl ethanol at −20° C. for 30 minutes. Samples were centrifuged at 4° C. for 30 minutes at 10,000×g. Pellets were washed twice with 70% ethanol and air-dried for 15 minutes prior to resuspension in 20 μl nuclease free water. For the -RT control reactions, RNA/DNA template amounts were calculated volumetrically, to correspond with the volume of final template used in each reaction. Since some loss of cDNA can be expected for each of the purification steps, the volume of template used in the -RT control reactions likely exceeds that used in the corresponding test reactions, resulting in overestimation of the possible contribution of DNA background signals, acting as a conservative control.
Primers. […]

Substance: phytohemagglutinin [PHA]
- COUP transcription factor regulation in murine cells [1]: higher signal in the PHA-treated murine cells
- elevated DNA content in PHA-treated cultures ([2]; P=0.034): 9%
- elevated protein content in PHA-treated cultures ([2]; P=0.038): 9%
- cdc10 expression by PCR, PHA treated vs untreated ([3]; FIG. 9A): up-regulation
- calcineurin B expression by PCR, PHA treated vs untreated ([3]; FIG. 9B): down-regulation
